According to the supplement of paper PMC10307832:

What was measured:
Assay in all cases: relative viability (nuclei count vs DMSO), 5 days (fraction); higher = more cells survive
NCI-H1793 = test system: NCI-H1793
Method in brief: (§1)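 After 5 days of treatment, lung cancer cells in 1536-well plates were fixed and stained in a single step (final 0.05% Triton X-100, 1% formaldehyde, 1 ug/ml Hoechst) and their nuclei counted on 4× images. Treatment had been applied by pin tool the day after seeding as one drug alone or as a fixed anchor-drug dose with five library-drug doses (not always all listed) in √10 steps. Relative viability is the nuclei count of treated wells divided by that of vehicle wells, and values are medians of duplicate plates.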

SW 900 = test system: SW 900
Method in brief: as §1

LOU-NH91 = test system: LOU-NH91
Method in brief: as §1

201T = test system: 201T
Method in brief: as §1

NCI-H1563 = test system: NCI-H1563
Method in brief: as §1

HCC-15 = test system: HCC-15
Method in brief: as §1

NCI-H3122 = test system: NCI-H3122
Method in brief: as §1

H3255 = test system: H3255
Method in brief: as §1

NCI-H1734 = test system: NCI-H1734
Method in brief: as §1

NCI-H2347 = test system: NCI-H2347
Method in brief: as §1

COR-L23 = test system: COR-L23
Method in brief: as §1

NCI-H647 = test system: NCI-H647
Method in brief: as §1

NCI-H2405 = test system: NCI-H2405
Method in brief: as §1

EPLC-272H = test system: EPLC-272H
Method in brief: as §1

NCI-H520 = test system: NCI-H520
Method in brief: as §1

UMC-11 = test system: UMC-11
Method in brief: as §1

NCI-H322M = test system: NCI-H322M
Method in brief: as §1

NCI-H1650 = test system: NCI-H1650
Method in brief: as §1

NCI-H441 = test system: NCI-H441
Method in brief: as §1

NCI-H2170 = test system: NCI-H2170
Method in brief: as §1

PC-14 = test system: PC-14
Method in brief: as §1

NCI-H2023 = test system: NCI-H2023
Method in brief: as §1

Nc1ccn([C@@H]2O[C@H](CO)[C@@H](O)[C@@H]2O)c(=O)n1 [Cytarabine] + CCNC(=O)c1noc(-c2cc(C(C)C)c(O)cc2O)c1-c1ccc(CN2CCOCC2)cc1 [Luminespib] (partner 0.01 µM)
relative viability (NCI-H1793; first compound 0.005 µM): 0.201 | relative viability (NCI-H1793; first compound 0.01581 µM): 0.186 | relative viability (NCI-H1793; first compound 0.05 µM): 0.232 | relative viability (NCI-H1793; first compound 0.1581 µM): 0.184 | relative viability (NCI-H1793; first compound 0.5 µM): 0.155 | relative viability (SW 900; first compound 0.005 µM): 0.16 | relative viability (SW 900; first compound 0.01581 µM): 0.184 | relative viability (SW 900; first compound 0.05 µM): 0.186 | relative viability (SW 900; first compound 0.1581 µM): 0.142 | relative viability (SW 900; first compound 0.5 µM): 0.137 | relative viability (LOU-NH91; first compound 0.005 µM): 0.362 | relative viability (LOU-NH91; first compound 0.01581 µM): 0.361 | relative viability (LOU-NH91; first compound 0.05 µM): 0.321 | relative viability (LOU-NH91; first compound 0.1581 µM): 0.316 | relative viability (LOU-NH91; first compound 0.5 µM): 0.317 | relative viability (201T; first compound 0.005 µM): 1.09 | relative viability (201T; first compound 0.01581 µM): 1.12 | relative viability (201T; first compound 0.05 µM): 1.14 | relative viability (201T; first compound 0.1581 µM): 0.982 | relative viability (201T; first compound 0.5 µM): 0.974 | relative viability (NCI-H1563; first compound 0.005 µM): 0.628 | relative viability (NCI-H1563; first compound 0.01581 µM): 0.506 | relative viability (NCI-H1563; first compound 0.05 µM): 0.432 | relative viability (NCI-H1563; first compound 0.1581 µM): 0.407 | relative viability (NCI-H1563; first compound 0.5 µM): 0.455 | relative viability (HCC-15; first compound 0.005 µM): 0.328 | relative viability (HCC-15; first compound 0.01581 µM): 0.416 | relative viability (HCC-15; first compound 0.05 µM): 0.354 | relative viability (HCC-15; first compound 0.1581 µM): 0.428 | relative viability (HCC-15; first compound 0.5 µM): 0.267 | relative viability (NCI-H3122; first compound 0.005 µM): 0.0849 | relative viability (NCI-H3122; first compound 0.01581 µM): 0.0661 | relative viability (NCI-H3122; first compound 0.05 µM): 0.0881 | relative viability (NCI-H3122; first compound 0.1581 µM): 0.0776 | relative viability (NCI-H3122; first compound 0.5 µM): 0.0754 | relative viability (H3255; first compound 0.005 µM): 0.98 | relative viability (H3255; first compound 0.01581 µM): 0.763 | relative viability (H3255; first compound 0.05 µM): 0.69 | relative viability (H3255; first compound 0.1581 µM): 0.662 | relative viability (H3255; first compound 0.5 µM): 0.554 | relative viability (NCI-H1734; first compound 0.005 µM): 0.251 | relative viability (NCI-H1734; first compound 0.01581 µM): 0.162 | relative viability (NCI-H1734; first compound 0.05 µM): 0.138 | relative viability (NCI-H1734; first compound 0.1581 µM): 0.139 | relative viability (NCI-H1734; first compound 0.5 µM): 0.134 | relative viability (NCI-H2347; first compound 0.005 µM): 0.284 | relative viability (NCI-H2347; first compound 0.01581 µM): 0.402 | relative viability (NCI-H2347; first compound 0.05 µM): 0.39 | relative viability (NCI-H2347; first compound 0.1581 µM): 0.255 | relative viability (NCI-H2347; first compound 0.5 µM): 0.411 | relative viability (COR-L23; first compound 0.005 µM): 0.481 | relative viability (COR-L23; first compound 0.01581 µM): 0.789 | relative viability (COR-L23; first compound 0.05 µM): 0.628 | relative viability (COR-L23; first compound 0.1581 µM): 0.257 | relative viability (COR-L23; first compound 0.5 µM): 0.163 | relative viability (NCI-H647; first compound 0.005 µM): 0.146 | relative viability (NCI-H647; first compound 0.01581 µM): 0.111 | relative viability (NCI-H647; first compound 0.05 µM): 0.112 | relative viability (NCI-H647; first compound 0.1581 µM): 0.0665 | relative viability (NCI-H647; first compound 0.5 µM): 0.0757 | relative viability (NCI-H2405; first compound 0.005 µM): 0.64 | relative viability (NCI-H2405; first compound 0.01581 µM): 0.547 | relative viability (NCI-H2405; first compound 0.05 µM): 0.553 | relative viability (NCI-H2405; first compound 0.1581 µM): 0.369 | relative viability (NCI-H2405; first compound 0.5 µM): 0.318 | relative viability (EPLC-272H; first compound 0.005 µM): 0.433 | relative viability (EPLC-272H; first compound 0.01581 µM): 0.241 | relative viability (EPLC-272H; first compound 0.05 µM): 0.194 | relative viability (EPLC-272H; first compound 0.1581 µM): 0.228 | relative viability (EPLC-272H; first compound 0.5 µM): 0.243 | relative viability (NCI-H520; first compound 0.005 µM): 0.218 | relative viability (NCI-H520; first compound 0.01581 µM): 0.216 | relative viability (NCI-H520; first compound 0.05 µM): 0.2 | relative viability (NCI-H520; first compound 0.1581 µM): 0.233 | relative viability (NCI-H520; first compound 0.5 µM): 0.223 | relative viability (UMC-11; first compound 0.005 µM): 0.792 | relative viability (UMC-11; first compound 0.01581 µM): 0.591 | relative viability (UMC-11; first compound 0.05 µM): 0.495 | relative viability (UMC-11; first compound 0.1581 µM): 0.357 | relative viability (UMC-11; first compound 0.5 µM): 0.225 | relative viability (NCI-H322M; first compound 0.005 µM): 0.812 | relative viability (NCI-H322M; first compound 0.01581 µM): 0.685 | relative viability (NCI-H322M; first compound 0.05 µM): 0.514 | relative viability (NCI-H322M; first compound 0.1581 µM): 0.387 | relative viability (NCI-H322M; first compound 0.5 µM): 0.351 | relative viability (NCI-H1650; first compound 0.005 µM): 0.208 | relative viability (NCI-H1650; first compound 0.01581 µM): 0.181 | relative viability (NCI-H1650; first compound 0.05 µM): 0.254 | relative viability (NCI-H1650; first compound 0.1581 µM): 0.218 | relative viability (NCI-H1650; first compound 0.5 µM): 0.209 | relative viability (NCI-H441; first compound 0.005 µM): 0.283 | relative viability (NCI-H441; first compound 0.01581 µM): 0.252 | relative viability (NCI-H441; first compound 0.05 µM): 0.354 | relative viability (NCI-H441; first compound 0.1581 µM): 0.266 | relative viability (NCI-H441; first compound 0.5 µM): 0.271 | relative viability (NCI-H2170; first compound 0.005 µM): 0.761 | relative viability (NCI-H2170; first compound 0.01581 µM): 0.431 | relative viability (NCI-H2170; first compound 0.05 µM): 0.248 | relative viability (NCI-H2170; first compound 0.1581 µM): 0.23 | relative viability (NCI-H2170; first compound 0.5 µM): 0.158 | relative viability (PC-14; first compound 0.005 µM): 0.172 | relative viability (PC-14; first compound 0.01581 µM): 0.133 | relative viability (PC-14; first compound 0.05 µM): 0.131 | relative viability (PC-14; first compound 0.1581 µM): 0.131 | relative viability (PC-14; first compound 0.5 µM): 0.0979 | relative viability (NCI-H2023; first compound 0.005 µM): 0.604 | relative viability (NCI-H2023; first compound 0.01581 µM): 0.235 | relative viability (NCI-H2023; first compound 0.05 µM): 0.19 | relative viability (NCI-H2023; first compound 0.1581 µM): 0.0889 | relative viability (NCI-H2023; first compound 0.5 µM): 0.0897
